This passage reports IC50 results from patent publication US20210276977A1, “BICYCLIC INHIBITORS OF HISTONE DEACETYLASE” (Alkermes, Inc., priority 2018, published 2021).

Some results are limits rather than exact numbers.

The experiment deals with T1, HDAC2 (Homo sapiens, UniProt Q92769).
T1 construct: host or cells: SH-SY5Y cells
Briefly: HDAC2 Enzymatic Inhibition Assay in SH-SY5Y Cell Lysate with an Exogenous Substrate (HDAC-Glo 2). The class given is cell-based. To be noted: SH-SY5Y cells, five hours incubation, Table 3, class symbols. The protocol: HDAC2 Enzymatic Inhibition Assay in SH-SY5Y Cell Lysate with an Exogenous Substrate
SH-SY5Y cells (Sigma) were cultured in Eagle's Modified Essential Medium supplemented with 10% fetal bovine serum and pen/strep. Twenty-four hours prior to compound dosing 20 uL of cells were plated in white 384 well plates at a density of 1,500 cells/well. Compounds were serially diluted in neat DMSO and then diluted 1:100 v/v into media without FBS and mixed. Media was removed from the plated cells and the diluted compounds in serum free media (1% v/v final DMSO) were added and incubated at 37° C. for five hours. Ten uL of HDAC-Glo 2 reagent with 0.1% Triton X-100 was then added, the plate was mixed and allowed to develop at room temperature for 100 minutes. Plates were then read with a Spectramax LMax luminometer employing a 0.4 s integration time. Dose response curves were constructed with normalized data where CI-994 at 100 uM was defined as 100% inhibition and DMSO alone as 0% inhibition.
In the table, “A” indicates a IC50 value of less than 0.5 μM; “B” a IC50 value from 0.5 μM to 1.0 μM; “C” a IC50 value of greater than 1.0 μM and less than or equal to 2.0 μM; and “D” indicates an IC50 value of greater than 2.0 μM. NT=Not Tested.

T1 sequence (Q92769 whole entry): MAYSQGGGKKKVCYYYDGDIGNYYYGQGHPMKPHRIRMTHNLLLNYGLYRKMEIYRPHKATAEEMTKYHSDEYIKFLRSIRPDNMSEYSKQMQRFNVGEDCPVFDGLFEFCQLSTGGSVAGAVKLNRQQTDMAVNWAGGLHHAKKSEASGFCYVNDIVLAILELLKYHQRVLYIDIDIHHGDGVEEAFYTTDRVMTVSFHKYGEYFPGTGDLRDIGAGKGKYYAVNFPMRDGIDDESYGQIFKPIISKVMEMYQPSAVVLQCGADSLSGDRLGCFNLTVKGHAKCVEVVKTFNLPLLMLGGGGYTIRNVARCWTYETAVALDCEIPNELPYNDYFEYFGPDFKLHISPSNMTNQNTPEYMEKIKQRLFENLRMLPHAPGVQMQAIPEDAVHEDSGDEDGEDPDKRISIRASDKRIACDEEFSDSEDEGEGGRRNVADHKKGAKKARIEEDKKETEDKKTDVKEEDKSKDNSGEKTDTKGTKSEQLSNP

In general, IC50 refers to the concentration that inhibits the measured activity by half. Lower therefore signals inhibition by little substance. `Cc1cnc(CC2CN(C(=O)Nc3nc(-c4ccc(F)cc4F)ccc3N)C2)s1` [Compound 25] had a half-maximal inhibitory concentration (IC50) greater than 2000 nM.

`Nc1ccc(-c2ccc(F)cc2F)nc1NC(=O)N1CC(Oc2cccnc2)C1` [Compound 28] displayed an IC50 greater than 2000 nM. Take `Nc1ccc(-c2ccc(F)cc2F)nc1NC(=O)N1CC(OCc2ccccn2)C1` [Compound 29]: the IC50 was greater than 2000 nM. `Nc1ccc(-c2ccc(F)cc2F)nc1NC(=O)N1CC(Cc2ccncn2)C1` [Compound 32] displayed an IC50 of 1000 to 2000 nM. On to `Nc1ccc(-c2ccc(F)cc2F)nc1NC(=O)N1CC(C(F)c2ncc(F)cn2)C1` (stereo not drawn) [Compound 41], for which the IC50 lay within 1000 to 2000 nM. The value for `Nc1ccc(-c2ccc(F)cc2F)nc1NC(=O)N1CC(Cc2cccc3nccn23)C1` [Compound 48] was greater than 2000 nM. `Nc1ccc(-c2ccc(F)cc2F)nc1NC(=O)N1CC(Cc2ccc(C(F)(F)F)cn2)C1` [Compound 49] yielded an IC50 greater than 2000 nM. In turn, `Cc1cc(C)nc(CC2CN(C(=O)Nc3nc(-c4ccc(F)cc4F)ccc3N)C2)n1` [Compound 50] registered an IC50 greater than 2000 nM. With `Cc1cn(CC2CN(C(=O)Nc3nc(-c4ccc(F)cc4F)ccc3N)C2)cn1` [Compound 51], the IC50 was greater than 2000 nM. The value for `Cc1cncn1CC1CN(C(=O)Nc2nc(-c3ccc(F)cc3F)ccc2N)C1` [Compound 52] was greater than 2000 nM; that for `Cc1ccn(CC2CN(C(=O)Nc3nc(-c4ccc(F)cc4F)ccc3N)C2)n1` [Compound 53] was greater than 2000 nM.

`Cc1ccnn1CC1CN(C(=O)Nc2nc(-c3ccc(F)cc3F)ccc2N)C1` [Compound 54] gave an IC50 of 1000 to 2000 nM.

As for `Cc1cnc(CC2CN(C(=O)Nc3nc(-c4ccc(F)cc4F)ccc3N)C2)o1` [Compound 55], the half-inhibitory concentration (IC50) is greater than 2000 nM. The value for `CCC(c1ncccn1)C1CN(C(=O)Nc2nc(-c3ccc(F)cc3F)ccc2N)C1` (stereo not drawn) [Compound 56] was greater than 2000 nM; that for `CC(c1ncccn1)C1CN(C(=O)Nc2nc(-c3ccccc3F)ccc2N)C1` (stereo not drawn) [Compound 58] was 1000 to 2000 nM; that for `CC(F)(c1ncccn1)C1CN(C(=O)Nc2nc(-c3ccc(F)cc3F)ccc2N)C1` (stereo not drawn) [Compound 60] was greater than 2000 nM. For `Cc1cnc(CC2CN(C(=O)Nc3nc(-c4ccc(F)s4)ccc3N)C2)o1` [Compound 62], the IC50 was greater than 2000 nM. `Cc1cnc(CC2CN(C(=O)Nc3nc(-c4ccc(F)cc4)ccc3N)C2)o1` [Compound 63] yielded an IC50 of 1000 to 2000 nM. Turning to `Cc1cnc(CC2CN(C(=O)Nc3nc(-c4ccc(F)s4)ccc3N)C2)nc1` [Compound 67], the IC50 was in the range of 500 to 1000 nM.

`Nc1ccc(-c2ccc(F)cc2)nc1NC(=O)N1CC(C(F)(F)c2ccccn2)C1` [Compound 75]: the IC50 was greater than 2000 nM. To `Nc1ccc(-c2ccc(F)cc2)nc1NC(=O)N1CC(Cc2ccc(C(F)(F)F)cn2)C1` [Compound 85] belongs greater than 2000 nM.
